Reference: patent US7494996B2 (priority 2000, dated 2009)

Tests used:
Sphaerotheca fuliginea = assay: Cucumber Powdery Mildew (CPM) protectant test in the greenhouse; format: in vivo; details: 100 is total disease control, 0 is no disease control; for Cucumber Powdery Mildew (CPM) protectant fungicide data, percent control: 300 g/ha; for pest or weed control at 300 g/ha: Podosphaera fuliginea, topical, 168 h, read-out: Cucumber Powdery Mildew (CPM) protectant fungicide data, percent control
Summary of the method: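 Compounds in acetone-methanol-water (1:1:2) sprayed onto cucumber cv. "Bush Champion" (cotyledons plus one true leaf, 13 days old), dried 4 h. Inoculated 1 day later with 2×10^5 spores/ml; disease control (%) rated after 7 days in greenhouse.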

Pyricularia oryzae = assay: whole plant or invertebrate; format: in vivo; details: 100 is total disease control, 0 is no disease control; for Rice Blast (RB) protectant fungicide data, percent control: 300 g/ha, greenhouse; for pest or weed control at 300 g/ha: Pyricularia oryzae, topical, 144 h, read-out: Rice Blast (RB) protectant fungicide data, percent control, protectant, 300 g/ha, greenhouse

Row | SMILES | Cucumber Powdery Mildew (CPM) protectant fungicide data, percent control (Sphaerotheca fuliginea) [percent control] | Rice Blast (RB) protectant fungicide data, percent control (Pyricularia oryzae) [percent control] | pest or weed control at 300 g/ha (Sphaerotheca fuliginea) [%] | pest or weed control at 300 g/ha (Pyricularia oryzae) [%]
1 | CCCCN1N=C(c2cccc(OC)c2)NCC1=O [Compound 114] | 0 | 75 |  | 
2 | Cn1nc(-c2ccc(Oc3ccccc3)cc2)ncc1=O [Compound 282] | 75 | 75 |  | 
3 | O=c1cnc(-c2ccc(Cl)c(Cl)c2)nn1CC1CC1 [Compound 272] | 80 | 100 |  | 
4 | CCCCN1N=C(c2cccc(C(F)(F)F)c2)NCC1=O [Compound 115] | 50 | 100 |  | 
5 | O=C1CNC(c2cccc([N+](=O)[O-])c2)=NN1CC(F)(F)F [Compound 167] | 0 | 85 |  | 
6 | CCCCN1N=C(c2ccc(C(F)(F)F)cc2)NCC1=O [Compound 117] | 0 | 90 |  | 
7 | C[Si](C)(C)CN1N=C(c2ccc(Cl)cc2)NCC1=O [Compound 61] | 50 | 85 |  | 
8 | C=CCN1N=C(c2cc(Cl)cc(Cl)c2)NCC1=O [Compound 128] | 0 | 90 |  | 
9 | CCCCN1N=C(C)NC(c2ccc(F)c(C)c2)C1=O (stereo not drawn) [Compound 94] | 75 | 0 |  | 
10 | C=C(Cl)CN1N=C(c2cc(Cl)cc(Cl)c2)NCC1=O [Compound 65] | 50 | 95 |  | 
11 | CCCCn1nc(-c2sc(C)nc2C(F)(F)F)ncc1=O [Compound 268] | 75 | 0 |  | 
12 | O=C1CNC(c2ccc(-c3csnn3)cc2)=NN1CC(F)(F)F [Compound 144] | 0 | 85 |  | 
13 | CCCCOc1ccc(C2=NN(CC(F)(F)F)C(=O)CN2)cc1 [Compound 155] | 85 | 90 |  | 
14 | C#CCN1CC(=O)N(CC#C)N=C1c1ccc(F)c(Br)c1 [Compound 217] | 0 | 85 |  | 
15 | CCCCN1N=C(c2ccc(OC)cc2)NC(C)C1=O (stereo not drawn) [Compound 38] | 50 | 0 |  | 
16 | CCOC(=O)Cn1nc(-c2ccc(Cl)cc2)ncc1=O [Compound 250] | 50 | 90 |  | 
17 | CCCCN1Nc2c3c(Cl)c(Cl)ccc3cn2CC1=O [Compound 23, 9,10-Dichloro-2-butyl-1,2,4-triazino[3,4-a]isoindol-3(4H)-one] |  |  | 50 | 0
18 | O=C1CNC(c2ccc(Cl)c(Cl)c2)=NN1CC1CC1 [Compound 9, 1-Cyclopropylmethyl-3-(3,4-dichlorophenyl)-4,5-dihydro-1,2,4-triazin-6-one] |  |  | 80 | 100
19 | O=C1CNC(C2CCCCC2)=NN1CC(F)(F)F [Compound 45] | 0 | 75 |  | 
20 | O=C1CNC(c2ccc(F)c(F)c2)=NN1Cc1ccccc1 [Compound 139] | 50 | 99 |  | 
21 | CCCCN1N=C(c2ccc(Cl)c(Cl)c2)N(C(=S)SC)CC1=O [Compound 12, 1-n-butyl-3-(3,4-dichlorophenyl)-4-methylthiothiocarbonyl-4,5-dihydro-1,2,4-triazin-6-one] |  |  | 0 | 95
22 | C#CCN1N=C(c2cccc(Br)c2)NCC1=O [Compound 227] | 75 | 90 |  | 
23 | Cc1cccc(N2N=C(c3ccc(OCC(F)(F)F)nc3)NCC2=O)c1 [Compound 188] | 0 | 80 |  | 

Row | SMILES | Cucumber Powdery Mildew (CPM) protectant fungicide data, percent control (Sphaerotheca fuliginea) [percent control] | Rice Blast (RB) protectant fungicide data, percent control (Pyricularia oryzae) [percent control] | pest or weed control at 300 g/ha (Sphaerotheca fuliginea) [%] | pest or weed control at 300 g/ha (Pyricularia oryzae) [%]
24 | O=C1CNC(c2ccc(-c3ccccc3)cc2)=NN1CC(F)(F)F [Compound 146] | 85 | 95 |  | 
25 | CCCN1N=C(c2cc(Cl)cc(Cl)c2)NCC1=O [Compound 164] | 95 | 100 |  | 
26 | CCCCN1N=C(c2cc(Cl)cc(Cl)c2)N(C(=O)OCCl)CC1=O [Compound 15, 1-(n-butyl)-3-(3,5-dichlorophenyl)-4-(chloromethyloxycarbonyl)-4,5-dihydro-1,2,4-triazin-6-one] |  |  | 50 | 75
27 | CCCCN1N=C(C)NC(c2ccc(F)cc2)C1=O (stereo not drawn) [Compound 93] | 75 | 0 |  | 
28 | O=C1CN(CCCl)C(c2cc(Cl)cc(Cl)c2)=NN1CC(F)(F)F [Compound 126] | 0 | 50 |  | 
29 | O=C1CNC(c2ccc(F)c(Br)c2)=NN1CC(F)(F)F [Compound 208] | 50 | 95 |  | 
30 | O=C1CNC(c2cccc(Br)c2)=NN1CC(F)(F)F [Compound 212] | 85 | 98 |  | 
31 | C=COC(=O)N1CC(=O)N(CCCC)N=C1c1cccc(Cl)c1Cl [Compound 136] | 80 | 100 |  | 
32 | CCCCN1N=C(c2cc(Cl)cc(Cl)c2)N(C(=O)SC)CC1=O [Compound 129] | 75 | 50 |  | 
33 | CCCCN1N=C(c2ccc(Cl)c(Cl)c2)N(C=CS(=O)(=O)c2ccccc2)CC1=O [Compound 13, 1-n-butyl-3-(3.4-dichlorophenyl)-4-(2-phenylsulfonylethene)-4,5-dihydro-1,2,4-triazin-6-one] | 0 | 95 |  | 
34 | O=C1CNC(c2cnc3ccccc3c2)=NN1CC(F)(F)F [Compound 141] | 50 | 85 |  | 
35 | Cc1ccccc1-c1nn(CC(F)(F)F)c(=O)c(=O)[nH]1 [Compound 291] |  |  | 0 | 80
36 | Cc1cc(C2=NN(CC(F)(F)F)C(=O)CN2)ccc1[N+](=O)[O-] [Compound 157] | 0 | 98 |  | 
37 | O=C1CNC(c2ccc3ccccc3c2)=NN1CC(F)(F)F [Compound 143] | 50 | 98 |  | 
38 | O=C1CNC(c2ccco2)=NN1CC(F)(F)F [Compound 140] | 50 | 0 |  | 
39 | O=C1CN(C(=O)Oc2ccccc2)C(c2cc(Cl)cc(Cl)c2)=NN1CC(F)(F)F [Compound 193] | 0 | 80 |  | 
40 | CCC#CCn1nc(-c2ccc(Cl)cc2)nc(C)c1=O [Compound 237] | 95 | 0 |  | 
41 | O=C1CNC(c2ccccn2)=NN1Cc1ccccc1 [Compound 185] | 75 | 80 |  | 
42 | CCOCCN1N=C(c2cc(Cl)cc(Cl)c2)NCC1=O [Compound 108] | 85 | 90 |  | 
43 | CCCCn1nc(-c2cc(Cl)ccc2Cl)ncc1=O [Compound 269] | 0 | 99 |  | 
44 | O=C1CNC(c2ccc(-c3ccc([N+](=O)[O-])cc3)cc2)=NN1CC(F)(F)F [Compound 142] | 0 | 80 |  | 
45 | C#CCOC(=O)N1CC(=O)N(CCCC)N=C1c1ccc(Cl)c(Cl)c1 [Compound 171] | 50 | 80 |  | 
